Experimental data taken from patent US20250188088A1, “COMPOUND AND USE THEREOF” (ONQUALITY PHARMACEUTICALS CHINA LTD., priority 2022, published 2025).
≈ marks a conversion by molar mass, not a printed value. Read-outs that look alike come from different tables or passages of the source. Blank lines part the entries; values can stand above or below the compound they belong to.

How the values were obtained:
[1] = Thermodynamic solubility assay (PBS pH 6.5; isopropyl myristate); format: physicochemical; conditions: thermodynamic from solid
Description: Thermodynamic Solubility Assay
Weigh not less than 2 mg of the sample powder into a Whatman Mini-UniPrep vial. If it is required to test the thermodynamic solubility of samples in multiple buffers, a separate vial is needed for each test; add 450 μL of buffer to each Whatman Mini-UniPrep vial, respectively; after that, install the piston cap of Whatman Mini-UniPrep and press it above the liquid level, so that the filter is in contact with the buffer during shaking; shake the solubility sample by vortexing for 1 minute.
Inject 3 UV standard solutions from low to high concentrations into the HPLC, then inject the diluent and supernatant of the test compound, with two replicates of test sample; and integrate the UV peaks. Simulate a standard curve and calculate the thermodynamic solubility of the sample.

[2] = Log D measurement (n-octanol/PBS shake, LC-MS/MS); format: physicochemical; conditions: pH 7.4, read-out: LogD7.4 (Oct/buff)
Description: Two replicates of test compounds (DMSO stock solution 10 mM, 2 μL/well) and QCs (DMSO 10 mM, 2 μL/well) were transferred from the storage tube to a 96-well cluster tube. Add buffer-saturated n-octanol ([…]) and n-octanol-saturated PBS (149 μL/well) to each well; vortex mix the cluster tube for 1 minute, mix by shaking on a plate shaker at 880 rpm for one hour, and then centrifuge at 4000 rpm for 10 minutes. Remove the cover pad, accurately measure a certain amount of n-octanol layer samples (4 μL/well) into a 96-well plate containing n-octanol internal standard diluent (796 μL/well); accurately measure a certain amount of buffer salt layer samples (30 μL/well) into a 96-well plate containing buffer internal standard diluent (570 μL/well); the dilution factor of the sample can be adjusted according to different properties of the sample. Samples were analyzed using a triple quadrupole mass spectrometer. The processed sample solution was analyzed by the fast isocratic elution and small column retention method, the concentration correction was carried out by dilution factor and internal standard, and the ratio of the corrected peak area was used to calculate the final result (Log D/Log P value).

[3] = tested on: rash caused by monoclonal EGFR inhibitors; assay: Prevention of rash caused by monoclonal EGFR inhibitors, topical ointment, rat model; format: in vivo, SD rats
Description: An Experiment to Verify the Prevention of Rash Caused by Monoclonal EGFR Inhibitors with Topical Administration of Compounds of the Present Application on a Rat Animal Model After the SD rats were fed and adapted for one week (about 200 g), the rats were divided into 10 rats per group. The hair on the back of rats was gently removed with an electric razor one day before the experiment, and then an administration test was carried out. The experiments were divided into the administration group with the compound of the present application and the control group. The EGFR monoclonal antibody solution diluted with normal saline was injected via the tail vein twice a week, and the injection rate and time are shown in Table 2. After injection, the administration group applied the compound ointment of the present application on the backs (about 3 cm*3 cm) of rats every day, and the control group applied blank matrix ointment (about 0.5 g) to the backs (about 3 cm*3 cm) of rats every day. After drug application, the rats were fixed with a fixed cyclinder for 4 h; after that, the rats were released and the residual drug at the application site was wiped off with clear water. Monoclonal antibody EGFR inhibitors were injected via the tail vein twice a week, and the compound of the present application and blank ointment were applied once a day until obvious rashes appeared in the control group. […] Table 2 lists the animal experiment combinations of various monoclonal antibody EGFR inhibitors and the compound ointment of the present application, as well as the corresponding experiment results (wherein, the value in the control rate column=the number of rats whose rash is milder in the administration group than that in the control group/the total number of rats in the administration group×100%).

[4] = tested on: rash caused by small molecule EGFR inhibitors; assay: Prevention of rash caused by small molecule EGFR inhibitors, topical ointment, rat model; format: in vivo, SD rats
Text: An Experiment to Verify the Prevention of Rash Caused by Small Molecule EGFR Inhibitors with Topical Administration of Compounds of the Present Application on a Rat Animal Model A rat animal model was established. After daily gavage of a small molecule EGFR inhibitor to female SD rats for […], the rats developed extensive rashes on their backs several days later (picture shown in FIG. 1). […] Similar to humans, rats developed skin rashes on their faces and bodies after oral administration of small molecule EGFR inhibitors. Both of them had the same etiology and very similar symptoms. Therefore, rats are a proper animal model for mimicking EGFR inhibitor-induced rash. After the SD rats were fed and adapted for one week (about 200 g), the rats were divided into 10 rats per group. The hair on the back of rats was gently removed with an electric razor one day before the experiment, and then an intragastric administration test was carried out. EGFR inhibitors were dissolved in a sterile aqueous solution, and diluted with PBS buffer; the amount of each gavage was not more than 2 mL, and the dosage was shown in Table 1. The experiment comprised the administration group and the control group. After intragastric administration, apply the ointment (type and concentration are shown in Table 1) of the compound used in the present application to the backs (about 3 cm*3 cm) of rats in the administration group; apply blank matrix ointment (about 0.5 g) to the backs (about 3 cm*3 cm) of rats in the control group; fix the rats with a fixed cylinder for about 4 hours after drug application, release the rats after 4 hours, wipe off the residual drug at the application site with clean water, and put them back into the cage. The frequency of intragastric administration of EGFR inhibitors is shown in Table 1, but the compounds of the present application and blank matrix ointment are applied only once a day. The intragastric administration and application test were repeated daily until an obvious rash appeared in the control group. […] Table 1 lists the animal experiment combination of various small molecule EGFR inhibitors and the compound ointment of the present application, as well as the corresponding experiment results (wherein, the value in the control rate column=the number of rats whose rash is milder in the administration group than that in the control group/the total number of rats in the administration group×100%).

[5] = Plasma stability, mini pig plasma; format: in vitro ADME, Mini Pigs; conditions: 37° C.
Description: (§1) In addition, the plasma stability of these compounds was determined. Briefly, the determination method comprises the following steps: • 1) Thaw the frozen mixed plasma in a 37° C. water bath before testing, and then centrifuge at 4000 rpm for 5 min to remove blood clots; • 2) Add 98 μL blank plasma into each well of the 96-well reaction plate; • 3) In addition to the blank samples, add 2 μL of 100 μM working solution of test compound into each well; • 3) Incubate the reaction plate at 37° C. and start timing. Incubation times were 0, 10, 30, 60 and 120 minutes, respectively, with two replicate wells at each time point; • 4) Terminate the incubation at the corresponding time point, and add 400 μL of acetonitrile solution containing 200 ng/mL tolbutamide and 200 ng/mL labetalol to precipitate proteins; • 5) Shake each plate for 20 minutes, then centrifuge at 4000 rpm for 20 minutes, transfer 50 μL of supernatant to another 96-well plate, and dilute each sample with 100 μL of pure water; • 6) Analyze the sample by LC-MS/MS.

[6] = tested on: skin contact delayed-type hypersensitivity; assay: Skin contact delayed-type hypersensitivity (DNFB) response test, ear swelling, topical ointment; format: in vivo; conditions: topical to ears, DNFB DTH, Balb/c mice, compared to blank ointment
Text: Therapeutic Effect of Topical Administration of Compounds of the Present Application in Skin Contact Delayed-Type Hypersensitivity Response Test in Mice Delayed-type hypersensitivity (DTH) response in mouse skin is considered to be an effective model for clinical contact dermatitis and other T cell-mediated cutaneous immune diseases, such as atopic dermatitis and psoriasis. The DTH in mice shares the common features with these cutaneous immune diseases, including immunoinfiltration with an increase of inflammatory cytokines and hyperproliferation of keratinocytes. Balb/c mice were sensitized by topical administration of the antigen 2,4-dinitrofluorobenzene (DNFB) to the shaved back of mice on Days 0 and 1. On Day 5, the thickness of the ears was measured using an engineering micrometer. The measurement result was recorded and used as a baseline. The animals were then challenged with a total of 20 μL of DNFB (10 μL for the internal pinna and 10 μL for the external pinna) topically dosed to both ears at a concentration of 0.2%. The ears were measured again 24-72 hours after challenge. The compound ointment of the present application was applied topically to the ears of the animals throughout the allergic and challenge periods (Days −1˜7) or before or throughout the challenge period (generally Days 4˜7). The therapeutic effect was expressed by a reduction in ear swelling compared to that of the blank ointment. The compound causing a reduction of 20% or more was considered effective. Table 5 lists the skin contact delayed-type hypersensitivity experiment results in mice treated with the compound of the present application.

[7] = Plasma stability, human plasma; format: in vitro ADME, Humans; conditions: 37° C.
Description: as §1
The experiment results are as follows, and it can be seen from the test results that the selected compounds are easily metabolized to the target compound in human plasma.

[8] = aqueous buffer, PBS buffer pH 6.5, about 25° C., read-out: Thermodynamic Solubility pH = 6.5
[9] = oil or lipid, isopropyl myristate as vehicle, about 25° C., read-out: Thermodynamic Solubility in Isopropyl Myristate

SMILES: C[C@@H]1CCN(C(=O)CC#N)C[C@@H]1N(C)c1ncnc2c1ccn2C(=O)N(C)CCOC(=O)C1CC(F)(F)C1 [Compound A1]
solubility thermodynamic at 24 h [1, 8]: 645 µg/mL (≈ 1210 µM)
solubility thermodynamic at 24 h [1, 9]: 878 µg/mL (≈ 1650 µM)
logD [2]: 1.45

SMILES: C[C@@H]1CCN(C(=O)CC#N)C[C@@H]1N(C)c1ncnc2c1ccn2C(=O)N(C)CCOC(=O)C1CCC(F)(F)CC1 [Compound A2]
solubility thermodynamic at 24 h [1, 8]: 240 µg/mL (≈ 429 µM)
solubility thermodynamic at 24 h [1, 9]: 1020 µg/mL (≈ 1820 µM)
logD [2]: 1.86

SMILES: C[C@@H]1CCN(C(=O)CC#N)C[C@@H]1N(C)c1ncnc2c1ccn2C(=O)N(C)CCOC(=O)C1CCOC1 (some centres unmarked) [Compound A8]
solubility thermodynamic at 24 h [1, 8]: 2940 µg/mL (≈ 5750 µM)
solubility thermodynamic at 24 h [1, 9]: 208 µg/mL (≈ 407 µM)
logD [2]: 0.56

SMILES: C[C@@H]1CCN(C(=O)CC#N)C[C@@H]1N(C)c1ncnc2c1ccn2C(=O)N(C)CCOC(=O)C1CCCCC1 [Compound A16]
Control Rate ([3]; Cetuximab 100 mg/kg twice a week via tail vein, ointment 0.3 wt% once a day, 10 days): 10%
Control Rate ([3]; Cetuximab 100 mg/kg twice a week via tail vein, ointment 3.0 wt% once a day, 10 days): 50%
Control Rate ([3]; Cetuximab 100 mg/kg twice a week via tail vein, ointment 10.0 wt% once a day, 10 days): 70%
Control Rate ([3]; Panitumumab 10 mg/kg twice a week via tail vein, ointment 1.0 wt% once a day, 14 days): 50%
Control Rate ([3]; Panitumumab 10 mg/kg twice a week via tail vein, ointment 5.0 wt% once a day, 14 days): 80%
Control Rate ([3]; Panitumumab 10 mg/kg twice a week via tail vein, ointment 10.0 wt% once a day, 14 days): 60%
Control Rate ([4]; Afatinib 40 mg/kg once a day, ointment 1.0 wt% once a day, 14 days): 60%
Control Rate ([4]; Afatinib 40 mg/kg once a day, ointment 5.0 wt% once a day, 14 days): 80%
Control Rate ([4]; Afatinib 40 mg/kg once a day, ointment 10.0 wt% once a day, 14 days): 100%
Control Rate ([4]; BPI-7711 60 mg/kg once a day, ointment 1.0 wt% once a day, 12 days): 50%
Control Rate ([4]; Erlotinib 70 mg/kg once a day, ointment 0.3 wt% once a day, 14 days): 30%
Control Rate ([4]; Erlotinib 70 mg/kg once a day, ointment 3.0 wt% once a day, 14 days): 50%
Control Rate ([4]; Zorifertinib 60 mg/kg once a day, ointment 1.0 wt% once a day, 14 days): 30%
half-life at 2 µM [5]: 2.8 min
% Retained ([5]; 0 min): 100.0%
% Retained ([5]; 10 min): 8.3%
% Retained ([5]; 30 min): 0.1%
% Retained ([5]; 60 min): 0.0%
% Retained ([5]; 120 min): 0.0%
Reduction Rate of Ear Swelling ([6]; ointment 0.1 wt%): 25%
Reduction Rate of Ear Swelling ([6]; ointment 1.0 wt%): 35%
Reduction Rate of Ear Swelling ([6]; ointment 5.0 wt%): 39%
Reduction Rate of Ear Swelling ([6]; ointment 10.0 wt%): 42%
half-life at 2 µM [7]: 2.2 min
% Retained ([7]; 0 min): 100.0%
% Retained ([7]; 10 min): 4.5%
% Retained ([7]; 30 min): 0.0%
% Retained ([7]; 60 min): 0.0%
% Retained ([7]; 120 min): 0.0%

The next lines start with the values.

solubility thermodynamic at 24 h [1, 8]: 304 µg/mL (≈ 597 µM)
solubility thermodynamic at 24 h [1, 9]: 2340 µg/mL (≈ 4580 µM)
logD [2]: 2.1
SMILES: C[C@@H]1CCN(C(=O)CC#N)C[C@@H]1N(C)c1ncnc2c1ccn2C(=O)N(C)CCOC(=O)C1(C)CCC1 [Compound A3]

solubility thermodynamic at 24 h [1, 8]: 486 µg/mL (≈ 981 µM)
solubility thermodynamic at 24 h [1, 9]: 1250 µg/mL (≈ 2520 µM)
logD [2]: 2.35
SMILES: C[C@@H]1CCN(C(=O)CC#N)C[C@@H]1N(C)c1ncnc2c1ccn2C(=O)N(C)CCOC(=O)C1CCC1 [Compound A4]

solubility thermodynamic at 24 h [1, 8]: 147 µg/mL (≈ 289 µM)
solubility thermodynamic at 24 h [1, 9]: 1200 µg/mL (≈ 2350 µM)
logD [2]: 2.05
SMILES: C[C@@H]1CCN(C(=O)CC#N)C[C@@H]1N(C)c1ncnc2c1ccn2C(=O)N(C)CCOC(=O)CC1CCC1 [Compound A5]

solubility thermodynamic at 24 h [1, 8]: 300 µg/mL (≈ 589 µM)
solubility thermodynamic at 24 h [1, 9]: 1530 µg/mL (≈ 2990 µM)
logD [2]: 1.95
SMILES: C[C@@H]1CCN(C(=O)CC#N)C[C@@H]1N(C)c1ncnc2c1ccn2C(=O)N(C)CCOC(=O)C1CCCC1 [Compound A6]
